Measurements: patent US10071081B2, “Compositions of 1,2,4-oxadiazole benzoic acid compounds and methods for their use” (PTC Therapeutics, Inc., priority 2003, dated 2018)
Counter-ions that a name gives are not always drawn.

What follows are compounds tested on luciferase reporter construct containing a UGA premature termination codon (assay: cell-based luciferase reporter assay). Conditions: ranking combining potency and efficacy of protein synthesis; UGA luciferase reporter stably transfected in 293T Human Embryonic Kidney cells.
Parameters: species or system Human; key to Activity: *****: both extremely high potency and extremely high efficacy of protein synthesis; ****: extremely high potency of protein synthesis and very high efficacy; ****: very high potency of protein synthesis and extremely high efficacy; ***: both very high potency and very high efficacy of protein synthesis; **: very high potency of protein synthesis and significant efficacy; **: significant potency of protein synthesis and very high efficacy; *: significant potency and efficacy of protein synthesis
Description: Activity measurements in Table I were performed in a cell-based luciferase reporter assay (as described in Section 4.2) comprising a luciferase reporter construct containing a UGA premature termination codon that was stably transfected in 293T Human Embryonic Kidney cells. A small molecule, 3-[3-(4-Isopropyl-phenyl)-2,5-dioxo-imidazolidin-1-yl]-benzoic acid, known to allow readthrough of premature termination codons was used was used as an internal standard. Activity measurements are based on the qualitative relation between the minimum concentration of compound required to produce a given protein in a cell (potency) and the maximum amount of protein produced by the cell (efficacy). Potency and efficacy activities are ranked as either extremely high, very high or significant. The combination of these activities is used to determine the activity ranking.
Two assays were developed for use in high throughput screens to identify small molecules that promote nonsense suppression. Each assay utilized luciferase because it is a functional reporter gene assay (light is only produced if the protein is functional) and it is extremely sensitive (Light intensity is proportional to luciferase concentration in the nM range). The first assay is a cell-based luciferase reporter assay and the second is a biochemical assay consisting of rabbit reticulocyte lysate and a nonsense-containing luciferase reporter mRNA. In the cell-based assay, a luciferase reporter construct containing a UGA premature termination codon was stably transfected in 293T Human Embryonic Kidney cells. In the biochemical assay, mRNA containing a UGA premature termination codon was used as a reporter in an in vitro translation reaction using rabbit reticulocyte lysate supplemented with tRNA, hemin, creatine kinase, amino acids, KOAc, Mg(OAc)2, and creatine phosphate. […] Synthetic mRNA was prepared in vitro using the T7 promoter and the MegaScript in vitro transcription kit (Ambion).
To determine whether compounds also function in vivo, a stable cell line harboring the UGA nonsense-containing luciferase gene was treated with selected compounds. Cells were grown in standard medium supplemented with 1% penicillin-streptomycin (P/S) and 10% fetal bovine serum (FBS) to 70% confluency and split 1:1 the day before treatment. On the following day, cells were trypsinized and 40,000 cells were added to each well of a 96-well tissue culture dish. Serial dilutions of each compound were prepared to generate a six-point dose response curve spanning 2 logs (30 μM to 0.3 μM). The final concentration of the DMSO solvent remained constant at 1% in each well. Cells treated with 1% DMSO served as the background standard, and cells treated with gentamicin served as a positive control.

Structure (SMILES) | Activity
COCc1nc(-c2cccc(C(=O)O)c2)no1 [Compound 43, 3-(5-Methoxymethyl-[1,2,4]oxadiazol-3-yl)-benzoic acid] | *
O=C(O)c1cccc(-c2noc(-c3cc(F)ccc3F)n2)c1 [Compound 44, 3-[5-(2,5-Difluoro-phenyl)-[1,2,4]oxadiazol-3-yl]-benzoic acid] | ****
CCC(c1ccccc1)c1nc(-c2cccc(C(=O)O)c2)no1 (stereo not shown) [Compound 45, 3-[5-(1-Phenyl-propyl)-[1,2,4]oxadiazol-3-yl]-benzoic acid] | *
O=C(O)c1cccc(-c2noc(-c3ccccc3Cl)n2)c1 [Compound 46, 3-[5-(2-Chloro-phenyl)-[1,2,4]oxadiazol-3-yl]-benzoic acid] | *****
O=C(O)c1cccc(-c2noc(-c3cccc(OC(F)(F)F)c3)n2)c1 [Compound 47, 3-[5-(3-Trifluoromethoxy-phenyl)-[1,2,4]oxadiazol-3-yl]-benzoic acid] | ****
O=C(O)c1cccc(-c2noc(Cc3ccc(F)cc3)n2)c1 [Compound 48, 3-[5-(4-Fluoro-benzyl)-[1,2,4]oxadiazol-3-yl]-benzoic acid] | ****
Cc1cc(-c2nc(-c3cccc(C(=O)O)c3)no2)c(C)o1 [Compound 49, 3-[5-(2,5-Dimethyl-furan-3-yl)-[1,2,4]oxadiazol-3-yl]-benzoic acid] | ****
Cc1ccsc1-c1nc(-c2cccc(C(=O)O)c2)no1 [Compound 50, 3-[5-(3-Methyl-thiophen-2-yl)-[1,2,4]oxadiazol-3-yl]-benzoic acid] | *****
O=C(O)c1cccc(-c2noc(COc3cccc(Cl)c3)n2)c1 [Compound 51, 3-[5-(3-Chloro-phenoxymethyl)-[1,2,4]oxadiazol-3-yl]-benzoic acid] | **
O=C(O)c1cccc(-c2noc(-c3ccno3)n2)c1 [Compound 52, 3-(5-Isoxazol-5-yl-[1,2,4]oxadiazol-3-yl)-benzoic acid] | **
O=C(O)c1cccc(-c2noc(-c3ccc(Cl)nc3)n2)c1 [Compound 53, 3-[5-(6-Chloro-pyridin-3-yl)-[1,2,4]oxadiazol-3-yl]-benzoic acid] | ****
O=C(O)c1cccc(-c2noc(CC3CCCC3)n2)c1 [Compound 56, 3-(5-Cyclopentylmethyl-[1,2,4]oxadiazol-3-yl)-benzoic acid] | ***
O=C(O)c1cccc(-c2noc(-c3ccc(F)cc3F)n2)c1 [Compound 57, 3-[5-(2,4-Difluoro-phenyl)-[1,2,4]oxadiazol-3-yl]-benzoic acid] | ****
O=C(O)c1cccc(-c2noc(-c3cccnc3)n2)c1 [Compound 58, 3-(5-Pyridin-3-yl-[1,2,4]oxadiazol-3-yl)-benzoic acid] | ***
O=C(O)c1cccc(-c2noc(-c3ccncc3)n2)c1 [Compound 59, 3-(5-Pyridin-4-yl-[1,2,4]oxadiazol-3-yl)-benzoic acid] | ***
O=C(O)c1cccc(-c2noc(C3CCC3)n2)c1 [Compound 60, 3-(5-Cyclobutyl-[1,2,4]oxadiazol-3-yl)-benzoic acid] | **
COc1ccc(Cc2nc(-c3cccc(C(=O)O)c3)no2)cc1 [Compound 61, 3-[5-(4-Methoxy-benzyl)-[1,2,4]oxadiazol-3-yl]-benzoic acid] | **
COc1ccc(-c2nc(-c3cccc(C(=O)O)c3)no2)cc1OC [Compound 62, 3-[5-(3,4-Dimethoxy-phenyl)-[1,2,4]oxadiazol-3-yl]-benzoic acid] | ****
O=C(O)c1cccc(-c2noc(-c3cccnc3Cl)n2)c1 [Compound 63, 3-[5-(2-Chloro-pyridin-3-yl)-[1,2,4]oxadiazol-3-yl]-benzoic acid] | ****
CC(=O)N1CCC(c2nc(-c3cccc(C(=O)O)c3)no2)CC1 [Compound 64, 3-[5-(1-Acetyl-piperidin-4-yl)-[1,2,4]oxadiazol-3-yl]-benzoic acid] | *

Structure (SMILES) | Activity
O=C(O)c1cccc(-c2noc(-c3cc4ccccc4s3)n2)c1 [Compound 65, 3-(5-Benzo[b]thiophen-2-yl-[1,2,4]oxadiazol-3-yl)-benzoic acid] | *****
CN(C)c1cccc(-c2nc(-c3cccc(C(=O)O)c3)no2)c1 [Compound 66, 3-[5-(3-Dimethylamino-phenyl)-[1,2,4]oxadiazol-3-yl]-benzoic acid] | ****
O=C(O)c1cccc(-c2noc(-c3cccc(F)c3F)n2)c1 [Compound 67, 3-[5-(2,3-Difluoro-phenyl)-[1,2,4]oxadiazol-3-yl]-benzoic acid] | ****
Cc1ccc(F)c(-c2nc(-c3cccc(C(=O)O)c3)no2)c1 [Compound 68, 3-[5-(2-Fluoro-5-methyl-phenyl)-[1,2,4]oxadiazol-3-yl]-benzoic acid] | ***
CSc1ncccc1-c1nc(-c2cccc(C(=O)O)c2)no1 [Compound 69, 3-[5-(2-Methylsulfanyl-pyridin-3-yl)-[1,2,4]oxadiazol-3-yl]-benzoic acid] | ****
O=C(O)c1cccc(-c2noc(-c3ccc4c(c3)OC(F)(F)O4)n2)c1 [Compound 70, 3-[5-(2,2-Difluoro-benzo[1,3]dioxol-5-yl)-[1,2,4]oxadiazol-3-yl]-benzoic acid] | ***
O=C(O)c1ccc(F)c(-c2noc(-c3ccc(F)cc3)n2)c1 [Compound 71, 4-Fluoro-3-[5-(4-fluoro-phenyl)-[1,2,4]oxadiazol-3-yl]-benzoic acid] | *
O=C(O)c1cc(-c2noc(-c3ccc(F)cc3)n2)ccc1F [Compound 72, 2-Fluoro-5-[5-(4-fluoro-phenyl)-[1,2,4]oxadiazol-3-yl]-benzoic acid] | ***
O=C(O)c1cccc(-c2noc(-c3ccc(Cl)cc3F)n2)c1 [Compound 73, 3-[5-(4-Chloro-2-fluoro-phenyl)-[1,2,4]oxadiazol-3-yl]-benzoic acid] | ****
O=C(O)c1cccc(-c2noc(-c3ccc(Br)cc3F)n2)c1 [Compound 74, 3-[5-(4-Bromo-2-fluoro-phenyl)-[1,2,4]oxadiazol-3-yl]-benzoic acid] | ***
O=C(O)c1cccc(-c2noc(-c3ccc(-c4ccccc4)cc3F)n2)c1 [Compound 75, 3-[5-(3-Fluoro-biphenyl-4-yl)-[1,2,4]oxadiazol-3-yl]-benzoic acid] | ****
COc1ccc(-c2noc(-c3ccc(F)cc3)n2)cc1C(=O)O [Compound 76, 5-[5-(4-Fluoro-phenyl)-[1,2,4]oxadiazol-3-yl]-2-methoxy-benzoic acid] | *
N#Cc1ccc(-c2nc(-c3cccc(C(=O)O)c3)no2)cc1 [Compound 77, 3-[5-(4-Cyano-phenyl)-[1,2,4]oxadiazol-3-yl]-benzoic acid] | *****
O=C([O][Na+])c1cccc(-c2noc(-c3ccccc3F)n2)c1 [Compound 78, 3-[5-(2-Fluoro-phenyl)-[1,2,4]oxadiazol-3-yl]-benzoic acid sodium salt] | *****
COC(=O)c1cccc(-c2noc(-c3ccc(F)cc3)n2)c1 [Compound 79, 3-[5-(4-Fluoro-phenyl)-[1,2,4]oxadiazol-3-yl]-benzoic acid methyl ester] | ***
O=C(O)c1cccc(-c2noc(-c3ccc(-c4ccccc4)cc3F)n2)c1 [Compound 81, 3-[5-(3-Fluoro-biphenyl-4-yl)-[1,2,4]oxadiazol-3-yl]-benzoic acid] | **
O=C(O)c1cccc(-c2noc(-c3ccc(N4CCCC4)nc3)n2)c1 [Compound 82, 3-[5-(6-Pyrrolidin-1-yl-pyridin-3-yl)-[1,2,4]oxadiazol-3-yl]-benzoic acid] | ****
O=C(O)c1cccc(-c2noc(-c3ccc(N4CCOCC4)nc3)n2)c1 [Compound 83, 3-[5-(6-Morpholin-4-yl-pyridin-3-yl)-[1,2,4]oxadiazol-3-yl]-benzoic acid] | ****
O=C(O)c1cccc(-c2noc(-c3ccc(N4CCCCC4)nc3)n2)c1 [Compound 84, 3-[5-(3,4,5,6-Tetrahydro-2H-[1,2′]bipyridinyl-5′-yl)-[1,2,4]oxadiazol-3-yl]-benzoic acid] | ****
O=C(O)c1cccc(-c2noc(-c3c(O)cccc3F)n2)c1 [Compound 85, 3-[5-(2-Fluoro-6-hydroxy-phenyl)-[1,2,4]oxadiazol-3-yl]-benzoic acid] | **
